“Also recorded” adds a separate entry of the source.

This assay concerns microorganisms. Nature of the assay: Targeting peptide binding to target microorganisms (Tables 3, 10, 12). Particulars: microorganism(s) the targeting peptide binds; binding in aqueous buffers varied with peptide solubility, preferably 1x PBS.

“PF-207 (AAGCRDLGSLSSLVTNPS; Peptide with targeting and/or antimicrobial activity)”: the “Target(s)” value is “M. luteus; also recorded: C. jeikeium”.
As for “PF-210 (EREDGCDAMPLP; Peptide with targeting and/or antimicrobial activity)”, the entry is “S. epidermidis and P. aeruginosa and C. albicans and MRSA and E. faecalis and C. jeikeium and C. jejuni”.
Then “PF-213 (MTTGVDFIIEKV; Peptide with targeting and/or antimicrobial activity)”, with “S. epidermidis”; and “PF-214 (GHLRVCWVFSASLLTPFRSATLI; Peptide with targeting and/or antimicrobial activity)”, with “S. mutans; also recorded: S. epidermidis; also recorded: M. luteus; also recorded: E. coli; also recorded: P. aeruginosa; also recorded: A. baumannii”.
Consider “PF-216 (ESVDKITEALEEDGFPAKVQ; Peptide with targeting and/or antimicrobial activity)”, for which the “Target(s)” value is listed as “S. mutans; also recorded: E. coli”.
As for “PF-217 (DWEFTHKTIPQKK; Peptide with targeting and/or antimicrobial activity)”, the entry is “S. mutans”.
Then “PF-218 (SETPEKPVGTFFYSIYYKIIL; Peptide with targeting and/or antimicrobial activity)”, with “S. epidermidis; also recorded: M. luteus; also recorded: P. aeruginosa; also recorded: A. baumannii”; and “PF-219 (FLALAVIAGLFKVILIYAAPYLK; Peptide with targeting and/or antimicrobial activity)”, with “S. epidermidis; also recorded: M. luteus; also recorded: P. aeruginosa; also recorded: A. baumannii”.
As for “PF-221 (VFDNIDINF; Peptide with targeting and/or antimicrobial activity)”, the entry is “S. epidermidis; also recorded: M. luteus; also recorded: P. aeruginosa”; as for “PF-223 (VKFCIECQTKLERKRR; Peptide with targeting and/or antimicrobial activity)”, “S. epidermidis; also recorded: M. luteus; also recorded: A. baumannii”; as for “PF-225 (MNCASPEFKKLMELYK; Peptide with targeting and/or antimicrobial activity)”, “S. epidermidis”.
On to “PF-228 (NQLGSQAFAQL; Peptide with targeting and/or antimicrobial activity)”, for which the “Target(s)” value is reported as “S. mutans”.
As for “PF-229 (DPILIQIGFTRFALRKAEAEKIEIQVEEGVPA; Peptide with targeting and/or antimicrobial activity)”, the entry is “S. epidermidis; also recorded: M. luteus; also recorded: P. aeruginosa; also recorded: A. baumannii”; as for “PF-230 (EDKPTNTIQEIKPVKWQ; Peptide with targeting and/or antimicrobial activity)”, “S. mutans”; as for “PF-231 (AVRDFKKSVREEDEAASLNSPRTIDAQVKTSESTSVKS; Peptide with targeting and/or antimicrobial activity)”, “S. mutans”.
As to “PF-232 (FDQLYALEREGKLDELLA; Peptide with targeting and/or antimicrobial activity)”, the “Target(s)” value is “S. epidermidis; also recorded: M. luteus”.
As to “PF-236 (KEIRTATVAELNAKRRLTSAEQALAEVS; Peptide with targeting and/or antimicrobial activity)”, the “Target(s)” value is on record as “S. mutans; also recorded: S. epidermidis; also recorded: E. coli; also recorded: C. albicans; also recorded: S. pneumoniae; also recorded: E. faecalis”.
As for “PF-237 (YVKPKVGVHE; Peptide with targeting and/or antimicrobial activity)”, the entry is “S. epidermidis”; as for “PF-238 (RNAVVVTEATFPKYEEEITNYLNRRFGEDWSLKLEKCSVA; Peptide with targeting and/or antimicrobial activity)”, “S. mutans and S. epidermidis and E. coli and P. aeruginosa and C. albicans and MRSA and S. pneumoniae and E. faecalis”; as for “PF-239 (PKHNVVTGVSVDLDYKP; Peptide with targeting and/or antimicrobial activity)”, “S. mutans; also recorded: E. coli”.
Then “PF-240 (RITEVPPDEHSDR; Peptide with targeting and/or antimicrobial activity)”, with “S. mutans; also recorded: E. coli”; and “PF-242 (KLFEDPLIKSKAVENFQTTWHEQCLAKELAKNM; Peptide with targeting and/or antimicrobial activity)”, with “S. mutans; also recorded: E. coli”; and “PF-244 (HMRTISYLLAFAKFSLFIPPKQSLKRL; Peptide with targeting and/or antimicrobial activity)”, with “S. epidermidis; also recorded: M. luteus; also recorded: P. aeruginosa; also recorded: A. baumannii”.
As for “PF-245 (MNDVKPVVQPKQTLKAFLVQLLSVRAGVYIKQNNQLPKTKG; Peptide with targeting and/or antimicrobial activity)”, the entry is “S. epidermidis; also recorded: M. luteus; also recorded: P. aeruginosa; also recorded: A. baumannii”; as for “PF-246 (QPDEKAEFFDPSLDKVYRHPTFYHIPDGIEHM; Peptide with targeting and/or antimicrobial activity)”, “S. mutans”.
As to “PF-247 (ETAASETH; Peptide with targeting and/or antimicrobial activity)”, the “Target(s)” value is reported as “S. epidermidis”.
As for “PF-248 (ILSKLWFWMINSLGVVLLVSYWLLAKWGVA; Peptide with targeting and/or antimicrobial activity)”, the entry is “S. mutans; also recorded: S. epidermidis; also recorded: M. luteus; also recorded: E. coli; also recorded: P. aeruginosa; also recorded: A. baumannii”; as for “PF-253 (VRDDDS; Peptide with targeting and/or antimicrobial activity)”, “S. epidermidis; also recorded: M. luteus”.
In the case of “PF-254 (FIYGVGFVPHFWLWKWLFSPWIAWPLMLLGYYIWFLT; Peptide with targeting and/or antimicrobial activity)”, the “Target(s)” value is “S. epidermidis; also recorded: M. luteus; also recorded: P. aeruginosa; also recorded: A. baumannii”.
Regarding “PF-256 (EYFKQVYVKNEKIYSFWICKDLSPKEAAKRAEDILVKLK; Peptide with targeting and/or antimicrobial activity)”, the “Target(s)” value is reported as “S. epidermidis”.
As for “PF-259 (LPFSKIGRRVSYKKKDVLKYEQSKTVLNTAQLATV; Peptide with targeting and/or antimicrobial activity)”, the entry is “S. epidermidis; also recorded: P. aeruginosa; also recorded: A. baumannii”.
Then “PF-262 (DPHSEIDVTRYCQLHHFTCQTMQISEREFHYLIETQ; Peptide with targeting and/or antimicrobial activity)”, with “S. mutans; also recorded: S. epidermidis; also recorded: M. luteus; also recorded: E. coli; also recorded: P. aeruginosa; also recorded: A. baumannii”; and “PF-263 (NLKKCPC; Peptide with targeting and/or antimicrobial activity)”, with “S. epidermidis; also recorded: M. luteus; also recorded: A. baumannii”; and “PF-265 (MKTLFFPLFLIIFVLIIQALDQSYQKKIGISKPQKHPEFMQ; Peptide with targeting and/or antimicrobial activity)”, with “S. epidermidis; also recorded: M. luteus; also recorded: A. baumannii”.
As for “PF-266 (DQEKKNKTEESTEQ; Peptide with targeting and/or antimicrobial activity)”, the entry is “S. mutans”.
On to “PF-267 (SDDKRTD; Peptide with targeting and/or antimicrobial activity)”, for which the “Target(s)” value was “M. luteus”.
Turning to “PF-268 (EVLLSDLRPDIFSET; Peptide with targeting and/or antimicrobial activity)”, the “Target(s)” value is given as “S. mutans”.
Then “PF-275 (LVSGVANTVKNTAHTVGNTAKHAGHVAADTTVKATKKQQVK; Peptide with targeting and/or antimicrobial activity)”, with “S. mutans”; and “PF-279 (SHIGFISISACLAVLLGIARLFVWTWVKFFA; Peptide with targeting and/or antimicrobial activity)”, with “S. mutans; also recorded: S. epidermidis; also recorded: M. luteus; also recorded: E. coli; also recorded: P. aeruginosa; also recorded: A. baumannii”.
As for “PF-281 (SYNTYYNKLIHGQRTPDGM; Peptide with targeting and/or antimicrobial activity)”, the entry is “S. mutans; also recorded: E. coli”; as for “PF-282 (QNNDTSAWCGSAHKNGNS; Peptide with targeting and/or antimicrobial activity)”, “S. mutans”; as for “PF-284 (MRYITYSLIPRLLSKKVIHQQ; Peptide with targeting and/or antimicrobial activity)”, “C. difficile”.
For “PF-285 (VPAKLLRVIDEIPE; Peptide with targeting and/or antimicrobial activity)”, the “Target(s)” value is on record as “S. mutans”.
As for “PF-288 (IYQLLNIEYSEDD; Peptide with targeting and/or antimicrobial activity)”, the entry is “S. mutans; also recorded: E. coli”.
Regarding “PF-291 (DVDGAIESEL; Peptide with targeting and/or antimicrobial activity)”, the “Target(s)” value is “S. mutans; also recorded: E. coli”.
Then “PF-295 (NIQVYESECGNYIFKKSDESFLIDIFDKNGTH; Peptide with targeting and/or antimicrobial activity)”, with “C. difficile”.
Then “PF-299 (LATKLKYEKEHKKM; Peptide with targeting and/or antimicrobial activity)”, with “B. subtilis”; and “PF-300 (VKDVLLELFNKIIGA; Peptide with targeting and/or antimicrobial activity)”, with “B. subtilis; also recorded: C. difficile”.

(Values after patent publication US20110039763A1, “TARGETED ANTIMICROBIAL MOIETIES” (C3 JIAN, INC., priority 2009, published 2011).)
